Assay results from patent publication US11274136B2, “Acylated glucagon analogue” (Zealand Pharma A/S, priority 2015, dated 2022).

Key:
[1] = Oral glucose tolerance test (OGTT) in mice; type: in vivo; details: male C57BL6/J mice, 30 nmol/kg subcutaneous, blood glucose AUC 0-120 min
Protocol: Effects of the test compounds on glycemic control were determined by an oral glucose tolerance test (OGTT) in 7-8 weeks old male C57BL6/J mice (obtained from Charles River Laboratories, Germany). Animals were housed in groups in individually ventilated cages (Tecniplast green line) with a 12-hour light cycle. They had ad libitum excess to a standard rodent diet (Provimi Kliba 3438) and water. The animals were housed in the test facility for at least one week prior to the OGTT. All experimental protocols concerning the use of laboratory animals were reviewed by a federal Ethics Committee and approved by governmental authorities.
The compounds were first dissolved in 0.1% aqueous ammonia to a nominal concentration of 2 mg/ml, and then diluted to the desired dosing strength in sterile PBS containing 25 mM phosphate buffer, pH 7.4. Compounds were administered in the morning by subcutaneous injection at a dose of 30 nmol/kg and a volume of 5 ml/kg. Control animals received a vehicle injection only. The GLP-1 analogue liraglutide was tested for comparison purposes. Group size was 5 animals per group.
The OGTT was performed 24 h or 48 h after compound administration. Animals were fasted for 10 h before the OGTT but still had ad libitum excess to water. After overnight fasting, a baseline blood sample (0 min) was obtained by tail bleed and blood glucose was measured with a glucometer. […]

[2] = molecular target: T1, human glucagon-like peptide 1 receptor (GLP-1R) (Homo sapiens, UniProt P43220); assay: GLP-1 receptor efficacy assay (cAMP AlphaScreen, CHO cells); type: cell-based; details: EC50[GLP-1R]/EC50[Glucagon-R], human receptors in CHO-K1
T1 construct: expressed in transfected cells
Source text: The cDNA encoding either the human glucagon receptor (Glucagon-R) (primary accession number P47871) or the human glucagon-like peptide 1 receptor (GLP-1R) (primary accession number P43220) were synthesized and cloned into a mammalian expression vector containing a Zeocin resistance marker.
The mammalian expression vectors encoding the Glucagon-R or the GLP-1-R were transfected into Chinese hamster ovary (CHO) cells by the Attractene method. Stably expressing clones were obtained by Zeocin selection (250 μg/mL) upon limited dilution of cells resistant to the selection pressure. Glucagon-R and GLP-1-R cell clones expressing were picked, propagated and tested in the Glucagon-R and GLP-1-R efficacy assays as described below. […]
CHO cells expressing the human Glucagon-R, or human GLP-1-R were seeded 24 hours prior to the assay at 5000 cells per well in 384-well microtiter plates in culture in 50 μl growth medium. […] After two hours of incubation at room temperature in the dark, the cAMP content was determined applying the AlphaScreen™ cAMP Functional Assay Kit from Perkin-Elmer according to manufacturer instructions. EC50 and relative efficacies compared to reference compounds (glucagon and GLP-1) were calculated applying computer aided curve fitting. The GLP-1/glucagon ratio is calculated as defined earlier.

[3] = Pharmacokinetic parameters after intravenous administration to rats; type: in vivo; details: Han/Wistar, rat, plasma, male Wistar rats, 20 nmol/kg
Protocol: Pharmacokinetic parameters of the test compounds were determined after intravenous administration to Han/Wistar rats. The acylated GLP-1 analogue semaglutide was also tested for comparison purposes.
Male Wistar rats were obtained from Charles River (Germany) weighing approximately 180 to 210 g at time of arrival at the test facility. Rats were caged in European standard rat cages type IV with light cycle of 12-hour dark and 12-hour light. During the study rats were housed in standard rat cages type III. Both diet Altromin 1324 (Altromin, Germany) and water was administered ad libitum during the whole experimental period. The animals were housed in the test facility for at least 4 days in order to assure proper acclimatization.
The compounds were first dissolved in 0.1% aqueous ammonia to a nominal concentration of 2 mg/ml, and then diluted to the desired dosing strength (10 μM) in sterile PBS containing 25 mM phosphate buffer, pH 7.4. Intravenous injections corresponding to 20 nmol/kg were given via a lateral tail vein.
Blood samples (200 μl) were collected from the periorbital plexus at time points 0.08, 0.25, 0.5, 1, 2, 4, 8, 24, 32 and 48 h post dosing into K3EDTA tubes and centrifuged for 5 minutes at 4° C. within 20 minutes of sampling. Plasma samples (>100 μl) were transferred to 96-well PCR plates, immediately frozen and kept at −20′C until analysed for plasma concentration for the respective GLP-1-glucagon compound using LC-MS/MS. Individual plasma concentration-time profiles were analysed by a non-compartmental approach using ToxKin™ version 3.2 (Unilog IT Services), and the resulting pharmacokinetic parameters were determined.

T1 sequence (P43220 24-463): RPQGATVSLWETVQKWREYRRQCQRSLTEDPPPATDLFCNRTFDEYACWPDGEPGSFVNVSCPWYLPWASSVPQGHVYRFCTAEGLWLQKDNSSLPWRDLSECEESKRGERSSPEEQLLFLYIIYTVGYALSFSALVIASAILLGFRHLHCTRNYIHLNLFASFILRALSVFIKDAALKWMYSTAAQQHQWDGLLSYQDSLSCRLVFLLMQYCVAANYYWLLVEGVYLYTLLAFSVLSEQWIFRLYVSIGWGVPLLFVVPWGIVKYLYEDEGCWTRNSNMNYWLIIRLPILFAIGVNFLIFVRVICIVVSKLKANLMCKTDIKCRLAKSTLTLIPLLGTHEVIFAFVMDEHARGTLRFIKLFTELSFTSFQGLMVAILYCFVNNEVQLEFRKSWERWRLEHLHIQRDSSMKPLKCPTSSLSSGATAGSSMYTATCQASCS

Ratio GLP-1/Glucagon [2]: 0.13 | clearance [3]: 5.4 mL/h/kg | MRT ([3]; read-out: Mean Residence Time): 19.2 h | half-life ([3]; read-out: Terminal half life (converted)): 15.2 h
SMILES: CC[C@H](C)[C@H](NC(=O)[C@H](Cc1ccccc1)NC(=O)[C@H](CC(=O)O)NC(=O)[C@H](CCCCN)NC(=O)[C@H](C)NC(=O)[C@H](C)NC(=O)[C@H](CCCNC(=N)N)NC(=O)[C@H](CCC(=O)O)NC(=O)[C@H](CC(=O)O)NC(=O)[C@H](CC(C)C)NC(=O)[C@H](Cc1ccc(O)cc1)NC(=O)[C@H](CCCCN)NC(=O)[C@H](CO)NC(=O)[C@H](Cc1ccc(O)cc1)NC(=O)[C@H](CC(=O)O)NC(=O)[C@H](CO)NC(=O)[C@@H](NC(=O)[C@H](Cc1ccccc1)NC(=O)[C@@H](NC(=O)CNC(=O)[C@H](CCC(N)=O)NC(=O)C(C)(C)NC(=O)[C@@H](N)Cc1c[nH]cn1)[C@@H](C)O)[C@@H](C)O)C(=O)N[C@@H](CCC(=O)O)C(=O)N[C@@H](Cc1c[nH]c2ccccc12)C(=O)N[C@@H](CC(C)C)C(=O)N[C@@H](CCC(=O)O)C(=O)N[C@@H](CCCCNC(=O)CNC(=O)CNC(=O)[C@H](CO)NC(=O)CNC(=O)[C@H](CO)NC(=O)CNC(=O)CC[C@H](NC(=O)CCCCCCCCCCCCCCCCC(=O)O)C(=O)O)C(=O)N[C@@H](C)C(N)=O [Compound 1]
OGTT AUC 30 nmol/kg 24 h ([1]; OGTT 24 h after administration): 56 % CTL | OGTT AUC 30 nmol/kg 48 h ([1]; OGTT 48 h after administration): 74 % CTL
